For ten molecules, IC50 results are on record in patent publication US12643866B2, “Small molecule compound serving as JAK kinase inhibitor and use thereof” (TECHNODERMA MEDICINES, INC., priority 2020, dated 2026).

Bounds are passed on as bounds.

What all share (format): biochemical
Experiment [1] concerns the target Tyk2 (Homo sapiens, UniProt P29597). Nature of the experiment: Detection of enzyme activity inhibition of JAK kinases (ULight-JAK substrate, Eu-labeled antibody): Tyk2. Particulars: ATP 10 μM, substrate 50 nM, 1 hour reaction at room temperature; read-out: Tyk2 half-maximum inhibitory concentration (IC50). The procedure:
(§1) Test Example 1: Detection of Enzyme Activity Inhibition of Small Molecule Inhibitors of JAK Kinases
(§2) Kinase reaction buffer: The kinase reaction buffer was prepared with the following components: 50 mM HEPES, pH 7.5, 1 mM EGTA, 10 mM MgCl2, 2 mM DTT, and 0.01% Tween20. 1× test buffer: A test buffer was prepared, and the 10× test buffer was diluted with deionized water (deionized water: test buffer=9:1) to obtain the 1× test buffer. 4× kinase solution: JAK kinase was diluted with a kinase reaction buffer to a final concentration of 4× (JAK1:80 nM, JAK2/JAK3/Tyk2:4 nM). 4× substrate solution: ULight™-JAK (Tyr1023) substrate was diluted with the kinase reaction buffer to 200 nM (final concentration: 50 nM). 4×ATP solution: ATP was diluted with the kinase reaction buffer to a final concentration of 4× (JAK1:160 μM, JAK2/JAK3/Tyk2: 40 μM). 4× test compound solution: The compounds to be tested were dissolved in DMSO to prepare 10 mM stock solutions, which were diluted to have the desired concentrations through 3-fold gradient dilution, 10 concentrations were set for each compound, and final concentrations of the test compounds ranged from 10 μM to 0.5 nM. 4× enzyme reaction termination solution: EDTA was dissolved in a 1× test buffer to 40 mM (final concentration of EDTA: 10 mM). 4× test antibody solution: Eu-labeled test antibodies (anti-phosphotyrosine (PT66)) were diluted with 1× test buffer to 8 nM (final concentration of the antibodies: 2 nM).
(§3) 2.5 μL of the 4× kinase solution and 2.5 μL of each of the 4× test compound solutions having different concentrations were added into a 384-well microwell plate sequentially, with 2 duplicate wells set for each concentration, and an enzyme solution blank control group and a negative control group (DMSO group) were also provided. The 384-well plate was oscillated to mix the enzyme and the compound uniformly, centrifuged at 1000 rpm for 1 minute, and incubated at room temperature for 60 minutes. 2.5 μL of the 4× substrate solution was added into the 384-well plate, and centrifuged at 1000 rpm for 1 minute. 2.5 μL of the 4×ATP solution was added into the 384-well plate, and centrifuged at 1000 rpm for 1 minute to start the enzyme reaction. JAK1 reacted at room temperature for 2 hours, and JAK2/JAK3/Tyk2 reacted at room temperature for 1 hour. The final concentration of each component in the JAK1 reaction was: JAK1:20 nM; substrate: 50 nM; and ATP: 40 μM. The final concentrations of the test compounds ranged from 10 μM to 0.5 nM. The final concentration of each component in the JAK2/JAK3/Tyk2 reaction was: JAK2: 1 nM; substrate: 50 nM; and ATP: 10 μM. The final concentrations of the test compounds ranged from 10 μM to 0.5 nM. After the enzyme reaction ended, 5 μL of the 4× enzyme reaction termination solution was added into each well of the 384-well plate, centrifuged at 1000 rpm for 1 minute, and incubated at room temperature for 5 minutes. 5 μL of the 4× test antibody solution (final concentration of the test antibodies was 2 nM) was added into each well of the 384-well plate, centrifuged at 1000 rpm for 1 minute, and incubated at room temperature for 1 hour. After incubation of the antibodies, a signal value of each well was measured with Envision plate reader.
(§4) Assuming that an inhibition rate of the enzyme solution blank control group was 100% and an inhibition rate of the negative control group (DMSO group) was 0%, an inhibition rate corresponding to each concentration was calculated. Nonlinear regression analysis was performed on the concentration logarithm values and corresponding percentage inhibition rates of the test compounds in GraphPad Prism software to obtain the half-maximum inhibitory concentrations (IC50) of the test compounds.

The target in experiment [2] is JAK1 (Homo sapiens, UniProt P23458). The experiment can be described thus: Detection of enzyme activity inhibition of JAK kinases (ULight-JAK substrate, Eu-labeled antibody): JAK1. To be noted: JAK1 20 nM, ATP 40 μM, substrate 50 nM, 2 hours reaction at room temperature; read-out: JAK1 half-maximum inhibitory concentration (IC50). The method, then:
as §1, §2, §3, §4

The target in experiment [3] is JAK2 (Homo sapiens, UniProt O60674). Nature of the experiment: Detection of enzyme activity inhibition of JAK kinases (ULight-JAK substrate, Eu-labeled antibody): JAK2. Particulars: JAK2 1 nM, ATP 10 μM, substrate 50 nM, 1 hour reaction at room temperature; read-out: JAK2 half-maximum inhibitory concentration (IC50). The procedure:
as §1, §2, §3, §4

For experiment [4], the target named is T1, JAK3 (Homo sapiens, UniProt P52333).
T1 sequence (P52333 1-1124): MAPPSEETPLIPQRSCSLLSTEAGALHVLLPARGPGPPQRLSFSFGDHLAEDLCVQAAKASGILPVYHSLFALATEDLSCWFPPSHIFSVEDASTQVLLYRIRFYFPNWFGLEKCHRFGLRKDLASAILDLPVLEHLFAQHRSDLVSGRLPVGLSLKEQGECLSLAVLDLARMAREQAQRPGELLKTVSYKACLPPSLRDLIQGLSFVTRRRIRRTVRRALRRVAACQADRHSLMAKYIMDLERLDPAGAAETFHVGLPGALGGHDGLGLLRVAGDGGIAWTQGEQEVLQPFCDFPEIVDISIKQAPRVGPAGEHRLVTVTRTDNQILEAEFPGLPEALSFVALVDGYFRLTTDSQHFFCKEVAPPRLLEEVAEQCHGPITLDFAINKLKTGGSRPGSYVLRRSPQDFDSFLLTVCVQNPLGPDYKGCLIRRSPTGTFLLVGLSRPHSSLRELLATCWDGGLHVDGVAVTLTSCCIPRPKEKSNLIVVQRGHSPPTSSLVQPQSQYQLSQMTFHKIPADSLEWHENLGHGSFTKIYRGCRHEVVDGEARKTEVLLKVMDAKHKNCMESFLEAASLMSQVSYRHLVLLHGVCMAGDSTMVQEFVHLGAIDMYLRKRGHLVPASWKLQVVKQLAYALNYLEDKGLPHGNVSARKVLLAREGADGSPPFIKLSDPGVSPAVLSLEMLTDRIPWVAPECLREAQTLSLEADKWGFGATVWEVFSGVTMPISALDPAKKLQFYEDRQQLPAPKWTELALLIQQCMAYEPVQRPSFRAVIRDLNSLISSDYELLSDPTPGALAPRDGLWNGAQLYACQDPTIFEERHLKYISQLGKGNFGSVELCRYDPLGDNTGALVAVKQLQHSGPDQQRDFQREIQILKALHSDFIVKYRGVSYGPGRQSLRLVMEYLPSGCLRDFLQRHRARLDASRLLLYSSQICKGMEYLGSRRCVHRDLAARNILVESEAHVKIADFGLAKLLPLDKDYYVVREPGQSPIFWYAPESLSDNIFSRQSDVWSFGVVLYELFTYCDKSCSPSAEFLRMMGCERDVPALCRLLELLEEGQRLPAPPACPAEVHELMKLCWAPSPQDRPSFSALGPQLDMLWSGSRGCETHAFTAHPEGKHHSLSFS
The experiment can be described thus: Detection of enzyme activity inhibition of JAK kinases (ULight-JAK substrate, Eu-labeled antibody): JAK3. To be noted: ATP 10 μM, substrate 50 nM, 1 hour reaction at room temperature; read-out: JAK3 half-maximum inhibitory concentration (IC50). The method, then:
as §1, §2, §3, §4

JAK1, sequence (P23458 whole entry): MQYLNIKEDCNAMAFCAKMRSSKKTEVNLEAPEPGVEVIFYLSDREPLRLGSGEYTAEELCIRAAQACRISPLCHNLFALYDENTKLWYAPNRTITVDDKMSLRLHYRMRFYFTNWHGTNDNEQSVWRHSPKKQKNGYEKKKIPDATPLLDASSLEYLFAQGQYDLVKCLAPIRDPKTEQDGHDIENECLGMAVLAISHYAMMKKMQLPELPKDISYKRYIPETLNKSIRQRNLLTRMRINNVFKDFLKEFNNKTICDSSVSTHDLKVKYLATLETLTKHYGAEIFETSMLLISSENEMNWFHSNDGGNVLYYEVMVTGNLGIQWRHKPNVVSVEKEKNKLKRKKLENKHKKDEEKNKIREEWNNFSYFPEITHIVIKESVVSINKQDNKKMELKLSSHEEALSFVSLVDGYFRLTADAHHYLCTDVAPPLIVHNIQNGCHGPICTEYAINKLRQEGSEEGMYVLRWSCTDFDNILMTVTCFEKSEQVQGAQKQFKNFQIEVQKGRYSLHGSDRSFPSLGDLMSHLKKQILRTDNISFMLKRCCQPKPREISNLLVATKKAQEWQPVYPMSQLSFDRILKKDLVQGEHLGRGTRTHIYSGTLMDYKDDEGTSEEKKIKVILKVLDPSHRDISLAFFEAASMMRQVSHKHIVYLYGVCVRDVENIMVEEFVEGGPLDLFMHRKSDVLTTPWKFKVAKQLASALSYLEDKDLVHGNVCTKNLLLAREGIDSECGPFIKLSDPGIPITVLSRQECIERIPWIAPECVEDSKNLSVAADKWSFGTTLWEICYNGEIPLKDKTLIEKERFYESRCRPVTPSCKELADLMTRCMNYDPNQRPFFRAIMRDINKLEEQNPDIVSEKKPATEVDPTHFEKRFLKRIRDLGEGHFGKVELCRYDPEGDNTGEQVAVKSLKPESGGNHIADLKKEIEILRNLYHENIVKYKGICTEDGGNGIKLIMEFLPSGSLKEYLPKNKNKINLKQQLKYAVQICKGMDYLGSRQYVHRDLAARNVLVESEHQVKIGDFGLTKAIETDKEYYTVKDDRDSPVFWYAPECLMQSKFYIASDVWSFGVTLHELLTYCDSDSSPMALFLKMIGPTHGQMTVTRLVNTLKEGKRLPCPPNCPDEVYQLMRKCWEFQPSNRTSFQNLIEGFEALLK
Tyk2, sequence (P29597 whole entry): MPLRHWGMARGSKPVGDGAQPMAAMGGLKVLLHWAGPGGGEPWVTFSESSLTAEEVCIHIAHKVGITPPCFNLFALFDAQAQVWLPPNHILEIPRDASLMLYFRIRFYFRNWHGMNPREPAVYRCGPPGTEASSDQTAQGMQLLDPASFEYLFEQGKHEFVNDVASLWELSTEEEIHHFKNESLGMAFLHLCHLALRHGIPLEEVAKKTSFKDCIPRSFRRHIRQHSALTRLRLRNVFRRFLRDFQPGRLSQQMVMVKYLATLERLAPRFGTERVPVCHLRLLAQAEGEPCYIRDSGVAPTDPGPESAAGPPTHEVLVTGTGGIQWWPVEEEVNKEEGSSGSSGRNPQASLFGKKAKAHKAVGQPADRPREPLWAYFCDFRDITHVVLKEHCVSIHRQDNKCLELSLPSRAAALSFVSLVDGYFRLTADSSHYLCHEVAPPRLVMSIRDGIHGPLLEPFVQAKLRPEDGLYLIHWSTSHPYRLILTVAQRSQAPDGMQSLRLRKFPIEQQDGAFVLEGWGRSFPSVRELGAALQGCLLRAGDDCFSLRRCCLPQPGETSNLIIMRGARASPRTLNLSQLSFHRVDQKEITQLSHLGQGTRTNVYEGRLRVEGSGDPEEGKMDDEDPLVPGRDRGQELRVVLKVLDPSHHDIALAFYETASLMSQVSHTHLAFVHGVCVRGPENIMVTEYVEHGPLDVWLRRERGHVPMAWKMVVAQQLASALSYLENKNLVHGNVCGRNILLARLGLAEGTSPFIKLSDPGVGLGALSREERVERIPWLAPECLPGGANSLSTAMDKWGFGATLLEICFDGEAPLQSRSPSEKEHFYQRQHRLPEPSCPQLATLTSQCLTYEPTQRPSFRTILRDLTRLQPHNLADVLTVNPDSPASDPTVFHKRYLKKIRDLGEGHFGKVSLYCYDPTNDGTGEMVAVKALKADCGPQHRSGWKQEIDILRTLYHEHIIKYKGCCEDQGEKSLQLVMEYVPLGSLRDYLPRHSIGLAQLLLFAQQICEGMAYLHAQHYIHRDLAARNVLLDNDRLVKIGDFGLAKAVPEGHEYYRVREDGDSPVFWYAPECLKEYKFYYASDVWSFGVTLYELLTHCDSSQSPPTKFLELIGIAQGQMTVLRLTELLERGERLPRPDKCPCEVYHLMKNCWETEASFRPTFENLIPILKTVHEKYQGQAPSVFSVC
JAK2, sequence (O60674 whole entry): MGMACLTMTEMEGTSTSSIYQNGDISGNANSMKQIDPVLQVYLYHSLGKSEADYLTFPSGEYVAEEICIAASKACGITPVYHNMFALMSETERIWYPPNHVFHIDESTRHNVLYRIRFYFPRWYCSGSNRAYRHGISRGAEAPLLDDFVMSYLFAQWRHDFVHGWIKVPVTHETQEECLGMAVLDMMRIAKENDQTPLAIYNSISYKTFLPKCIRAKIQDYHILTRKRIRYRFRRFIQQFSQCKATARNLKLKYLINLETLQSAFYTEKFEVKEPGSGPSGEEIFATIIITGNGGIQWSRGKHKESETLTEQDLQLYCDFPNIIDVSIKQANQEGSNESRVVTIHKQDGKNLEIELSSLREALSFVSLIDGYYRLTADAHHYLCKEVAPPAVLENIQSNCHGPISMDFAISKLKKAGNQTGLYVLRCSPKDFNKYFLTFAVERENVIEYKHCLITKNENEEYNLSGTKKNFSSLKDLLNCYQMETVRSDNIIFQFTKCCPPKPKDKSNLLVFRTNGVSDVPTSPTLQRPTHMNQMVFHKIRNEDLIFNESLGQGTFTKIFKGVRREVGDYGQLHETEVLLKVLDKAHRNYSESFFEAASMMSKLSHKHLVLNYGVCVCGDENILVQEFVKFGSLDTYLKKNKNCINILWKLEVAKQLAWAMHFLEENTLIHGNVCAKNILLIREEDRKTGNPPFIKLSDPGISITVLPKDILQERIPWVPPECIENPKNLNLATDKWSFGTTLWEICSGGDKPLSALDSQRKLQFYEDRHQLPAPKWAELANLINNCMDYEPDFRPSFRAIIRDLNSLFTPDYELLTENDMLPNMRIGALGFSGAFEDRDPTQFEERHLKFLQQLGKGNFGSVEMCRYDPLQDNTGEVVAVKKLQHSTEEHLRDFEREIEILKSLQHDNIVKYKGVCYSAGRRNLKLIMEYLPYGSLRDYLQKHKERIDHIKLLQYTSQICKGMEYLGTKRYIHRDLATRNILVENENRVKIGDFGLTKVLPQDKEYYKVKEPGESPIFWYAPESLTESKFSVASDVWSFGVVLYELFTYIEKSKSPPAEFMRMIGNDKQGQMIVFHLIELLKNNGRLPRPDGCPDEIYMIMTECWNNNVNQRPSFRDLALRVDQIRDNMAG

For the molecule `CCNC(=O)c1ccc(Nc2nccc(-c3ccc(NC(=O)[C@@H]4CC4(F)F)nc3)n2)cc1` [TDM-180971, (S)-4((4-(6-(2,2-difluorocyclopropane-1-formamido)pyridin-3-yl)pyrimidin-2-yl)amino)-N-ethyl benzamide], the IC50 was 0.005 µM in experiment [1], 0.006 µM in experiment [2], 0.007 µM in experiment [3] and 0.219 µM in experiment [4].

On to `CCNC(=O)c1ccc(Nc2nccc(-c3ccc(NC(=O)[C@@H]4CC4(F)F)cc3)n2)cc1` [TDM-180972], for which the IC50 in experiment [1] came out at 0.005 µM; in experiment [2], 0.004 µM; in experiment [3], 0.003 µM; in experiment [4], 0.117 µM.

Turning to `Cc1cc(Nc2nccc(-c3ccc(NC(=O)[C@@H]4CC4(F)F)cc3)n2)cnc1C(N)=O` [TDM-180974], the IC50 was determined as 0.008 µM in experiment [1], 0.007 µM in experiment [2], 0.007 µM in experiment [3] and 0.346 µM in experiment [4].

For `CCNC(=O)c1ccc(Nc2nccc(-c3ccc(NC(=O)[C@@H]4CC4(F)F)cc3)n2)cc1C` [TDM-180977, (S)-4-(4-(4-(4-(2,2-difluorocyclopropane-1-carboxamido)phenyl)pyrimidin-2-yl)amino)-N-ethyl-2-methylbenzamide], the IC50 in experiment [4] stood at 0.057 µM.

Turning to `CNC(=O)c1ncc(Nc2nccc(-c3ccc(NC(=O)[C@@H]4CC4(F)F)nc3)n2)cc1C` [TDM-180979, (S)-5((4-(6-(2,2-difluorocyclopropane-1-carboxamido)pyridin-3-yl)pyrimidin-2-yl)amino)-N,3-dimethylpyridinolineamide], the IC50 in experiment [1] was 0.017 µM; in experiment [2] it was 0.025 µM; in experiment [3], 0.033 µM; in experiment [4] it was 0.931 µM.

Turning to `Cc1cc(Nc2nccc(-c3ccc(NC(=O)[C@@H]4CC4(F)F)nc3)n2)cnc1C(N)=O` [TDM-180980, (S)-5-((4-(6-(2,2-difluorocyclopropane-1-carboxamido)pyridin-3-yl)pyrimidin-2-yl)amino)-3-methyl pyridinolineamide], the IC50 in experiment [1] was 0.018 µM; in experiment [2], 0.028 µM; in experiment [3], 0.03 µM; in experiment [4], greater than 5 µM.

As to `CNC(=O)c1ncc(Nc2nccc(-c3ccc(NC(=O)[C@@H]4CC4(F)F)cc3)n2)cc1C` [TDM-180981], the IC50 in experiment [1] is 0.008 µM; in experiment [2], 0.008 µM; in experiment [3] it was 0.008 µM; in experiment [4], 0.183 µM.

In the case of `CCNC(=O)c1ccc(Nc2nccc(-c3ccc(NC(=O)[C@@H]4CC4(F)F)nc3)n2)cc1C` [TDM-180984, (S)-4-((4-(6-(2,2-difluorocyclopropane-1-carboxamido)pyridin-3-yl)pyrimidin-2-yl)amino)-N-ethyl-2-methylbenzamide], the IC50 in experiment [1] was 0.005 µM; in experiment [2] it was 0.008 µM; in experiment [3], 0.009 µM; in experiment [4] it was 0.105 µM.

As for `CC(CO)c1ccc(Nc2nccc(-c3ccc(NC(=O)[C@@H]4CC4(F)F)nc3)n2)cn1` (stereo partly shown) [TDM-180987], the IC50 in experiment [1] worked out at 0.017 µM; in experiment [2] it was 0.025 µM; in experiment [3] it was 0.022 µM; in experiment [4], 0.31 µM.

As to `CC(CO)c1ccc(Nc2nccc(-c3ccc(NC(=O)[C@@H]4CC4(F)F)cc3)n2)cn1` (stereo partly shown) [TDM-180989], the IC50 in experiment [1] was found to be 0.014 µM; in experiment [2], 0.011 µM; in experiment [3], 0.013 µM; in experiment [4], 0.177 µM.
